This note sets out measurements from patent US6476012B2, “Estradiol-16α-carboxylic acid esters as locally active estrogens” (Yale University, priority 2001, dated 2002).

SMILES strings stand for the structures. Structures can show the parent of a compound that is named as a salt.

Data set [1] deals with ovariectomized mouse vagina (vaginal reductase activity). Nature of the data set: In vivo local estrogenic assay (vaginal reductases). The settings on record: for dose producing a statistically significant (P<0.001) stimulation of vaginal reductase: intravaginal single dose in 25% propylene glycol in saline (FIG. 3a). As to the method:
FIG. 3 depicts the results of in vivo local estrogenic assay (vaginal assay).
Controls were injected with vehicle. The next morning, 2,3,5-triphenyltetrazolium chloride was instilled in the vagina and thirty minutes later the animals were killed and the vaginal reductase activity was determined spectrophotometrically Panel a: the steroids were dissolved in 10 μL of 25% propylene glycol in saline. Panel b: the steroids were dissolved in 10 μL of sesame oil. n=5. Error bars are±S.D. *P<0.001 compared to the control.
In Vivo Estrogen Bioassays: Vaginal reductases. […] In some experiments as indicated, the method was modified by dissolving and injecting the estrogens in 10 μL of sesame oil. The next morning 0.5 mg of 2,3,5-triphenyltetrazolium chloride in 20 μL of saline was instilled in the vagina. Thirty minutes the animals were killed and the vaginas removed, washed thoroughly with saline and then blotted on filter paper. Each vagina was placed in a 12×75 mm test tube and extracted for 1 hour with ethanol/tetrachloroethylene (3:1). Afterwards, the solvent was removed and the formazan product in the organic extract was quantified at 500 nm. Each compound was assayed on at least 3 separate occasions with at least 5 replicates each time.

Data set [2] relates to esterase(s) in rat hepatic microsomes. The data set can be described thus: Esterase assay with rat hepatic microsomes. It counts as in vitro ADME. The settings on record: for Esterase RHA (relative hydrolytic activity): E16-1,2 = 100. The method, then:
Esterase. Esterase activity was measured in rat hepatic microsomes essentially using the conditions described.^39 Liver obtained from Sprague-Dawley rats was washed with phosphate buffered saline and homogenized in 3 volumes of cold 0.25 M sucrose and centrifuged at 700 g for 10 min and then at 10,000 g for 20 min. The resulting supernatant was centrifuged at 105,000 g for 60 min. The pellet was suspended in 0.1 M phosphate buffer pH 7.4 and washed by centrifugation at 105,000 g for 60 min. The washed pellet was suspended in 0.1 M Tris-HCl pH 8.0 at a concentration of ˜13 mg protein/ml and frozen at −80° C. For assay, the pellets were thawed and diluted with the same buffer. The incubation mixture consisted of the microsomal enzyme preparation, 0.28 mg protein/ml, E2-16α-alkyl esters, 50 μM, added in 10 μL of ethanol, all in a final volume of 1 mL of Tris buffer pH 8.0. Since the rates of reaction are widely different for the various esters, the incubation times were varied accordingly to obtain linear kinetics. At several appropriate time points, 100 μL aliquots were withdrawn and the reaction was quenched with 33 μL CH3CN, followed by a 33 μL of a solution of THF containing 1 […] of the internal standard, 6-ketoestradiol. The quenched aliquot was centrifuged for several minutes on bench-top centrifuge and 80 μl of the supernatant was analyzed for the esterase-hydrolysis product (the corresponding E2-16α-carboxylic acid: E16-1,0 8; E16-2,0 23; E16-3,0 35) by reversed phase HPLC with system H-10 for E2-16-1 and E2-16-2 esters, and with system H-15 for E2-16-3 esters. The E2-16α-carboxyl products, (Rt for E16-1,0 8=7 min and for E16-2,0 23=9 min, E16-3,0 35=6.5 min) and the internal standard, 6-ketoestradiol (Rt 7.5 min in system H-10, and 5 min in system H-15) were quantified at 280 nm on the HPLC UV detector. The UV absorbance was converted to moles of product by comparison to standard curves and corrected for recovery of the internal standard, 6-ketoestradiol. The velocity of the reaction for each ester, in nmol product/min/ml/ was then normalized to the ester, E16-1,2 10 and is shown in Table 1 as relative hydrolytic activity (RHA). The enzymatic velocity for the hydrolysis of E16-1,2 10 was 0.9±0.2 (S.D.) nmol product/min/ml over the various experiments. Since all of the esters could not be tested simultaneously, in each case we compared the rate of hydrolysis of the test compound to that of E16-1,2 10 run concurrently. All compounds were tested in triplicate in 3 separate experiments.

For data set [3], the system named is immature female rats (uterine weight). The data set can be described thus: In vivo systemic estrogenic assay (uterotrophic assay, uterine weight). Also noted: species or system rat. As to the method: FIG. 2 depicts of the results of an in vivo systemic estrogenic assay (uterotrophic assay) as described in the experimental section. […] On the fourth day the animals were killed, the uteri removed and weighed. The total dose is shown. Controls were injected with sesame oil. Error bars are±S.D. n=5. *P<0.05, **P<0.001 when compared to the control.
In Vivo Estrogen Bioassays: Uterine Weight. […] Control animals received sesame oil. On the fourth day, the animals were killed, the uteri were removed, dissected, blotted and weighed. Each compound was assayed in 3 separate experiments with n=5.

For a further data set, the system named is human ERβ and ERα. Nature of the data set: Competitive binding to human ERβ and ERα expressed in Escherichia coli lysates (ratio of RBAs). Particulars: RBAs (E2 = 100) in E. coli lysates expressing human ERβ and ERα separately.
Data set [4] addresses T1, ER in rat uterine cytosol (ERα) (Rattus norvegicus, UniProt P06211).
T1 construct: The uterus was removed and homogenized in ice-cold TEGDMo buffer; from tissue; host or cells: uterine cytosol of castrated female Sprague Dawley rats
T1 sequence (P06211 1-600): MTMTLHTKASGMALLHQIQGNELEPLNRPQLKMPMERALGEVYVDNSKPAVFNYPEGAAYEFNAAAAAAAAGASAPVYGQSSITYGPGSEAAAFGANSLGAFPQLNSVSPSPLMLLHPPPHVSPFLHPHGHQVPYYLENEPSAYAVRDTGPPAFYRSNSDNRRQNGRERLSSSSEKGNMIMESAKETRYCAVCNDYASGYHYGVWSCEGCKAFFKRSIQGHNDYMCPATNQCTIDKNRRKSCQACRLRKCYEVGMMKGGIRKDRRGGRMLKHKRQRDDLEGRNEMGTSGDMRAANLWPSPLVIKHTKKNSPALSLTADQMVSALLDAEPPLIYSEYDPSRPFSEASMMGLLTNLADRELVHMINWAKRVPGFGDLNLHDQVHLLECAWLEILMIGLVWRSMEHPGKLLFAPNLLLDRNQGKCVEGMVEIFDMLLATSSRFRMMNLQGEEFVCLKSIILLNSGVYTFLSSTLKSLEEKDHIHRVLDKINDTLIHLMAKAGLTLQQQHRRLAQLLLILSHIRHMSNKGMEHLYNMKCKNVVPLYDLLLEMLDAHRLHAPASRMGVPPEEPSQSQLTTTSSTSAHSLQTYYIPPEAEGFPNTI
The data set can be described thus: Competitive binding to the ER in rat uterine cytosol (RBA vs [3H]E2). The settings on record: for ER RBA (relative binding affinity): rat uterine estrogen receptor assay, E2 = 100, ± S.D.; for RBA: uterine cytosol (ERα), relative to E2. As to the method: Competitive Binding to the Estrogen Receptor ERα and ERβ. […] The ER in uterine cytosol is ERα the classical form of the ER.^38 Female Sprague Dawley rats were castrated and sacrificed 24 h later. The uterus was removed and homogenized in ice-cold TEGDMo buffer (10 mM Tris, 1.5 mM Na2-EDTA, 10% (v/v) glycerol, 1.0 mM dithiothreitol, 25 mM sodium molybdate, pH 7.4 at 4° C.). and centrifuged at 105,000 g for 45 min at 4° C. The supernatant (cytosol) was frozen on dry ice and stored at −80° C. until assay. […] Incubations were carried out on ice overnight and bound radioactivity was separated from free by adsorption with dextran coated charcoal and quantified by counting.^26 Relative Binding Affinity (RBA) was determined by analysis of the displacement curves by the curve-fitting program Prism (Graph-Pad Software inc., San Diego, Calif.). The results shown in Table 1. below, are from at least 3 separate experiments performed in duplicate.

In data set [5] the test system is alkaline phosphatase (AlkP) induction in Ishikawa cells. The data set can be described thus: Estrogenic potency in Ishikawa cells: induction of AlkP. It counts as cell-based, human. Particulars: for RSA (estrogenic potency compared to E2): Ishikawa AlkP; for Ishikawa Cell AlkP RSA (relative stimulatory activity): induction of AlkP, E2 = 100, ± S.D. The method, then: Estrogenic Potency in Ishikawa Cells. The estrogenic potency of the E2-analogs was determined in a estrogen bioassay, the induction of AlkP in human endometrial adenocarcinoma cells (Ishikawa) grown in 96-well microtiter plates as we have previously described.^28 In short, the cells are grown in phenol red free medium with estrogen depleted (charcoal stripped) bovine serum in the presence or absence of varying amounts of the steroids. […] After 3 days, the cells are washed, frozen and thawed, and then incubated with 5 mM p-nitrophenyl phosphate, a chromogenic substrate for the AlkP enzyme, at pH 9.8. To ensure linear enzymatic analysis, the plates are monitored kinetically for the for the production of p-nitrophenol at 405 nm. The relative stimulatory activity is determined by analysis of the curve fitting program Prism. Each compound was analyzed in at least 3 separate experiments performed in duplicate.

The nature of data set [6]: Stability on incubation with heat denatured enzyme under esterase assay conditions. It is filed as in vitro ADME. Particulars: heat denatured (1 h at 80° C.) enzyme, 37° C. As to the method: The various E2-16α-alkyl esters, including the reactive E16-1,2vin 15, were stable under the conditions used in the esterase assay. Each of the substrates was incubated with heat denatured (1 h at 80° C.) enzyme at 37° C. for periods that exceeded the incubation times of the enzyme assay. Only insignificant amounts of carboxyl products were formed from any of these esters during the incubations with denatured enzyme.

On to `CCOC(=O)[C@@H]1C[C@H]2[C@@H]3CCc4cc(O)ccc4[C@H]3CC[C@]2(C)[C@H]1O` [E16-1,2, Ethyl (3,17β-dihydroxyestra-1,3,5(10)-trien-16α-yl) formate], for which the “vaginal estrogenic effect” value in data set [1] (50 ng in sesame oil (FIG. 3b)) is reported as “still not stimulatory”. Moreover, the “dose producing a statistically significant (P<0.001) stimulation of vaginal reductase” value in data set [1] is 250 ng. In addition, in data set [2] (rat hepatic microsomes 0.28 mg protein/ml, ester 50 μM, pH 8.0, ± S.D.), the “enzymatic velocity for the hydrolysis” value came to 0.9±0.2 nmol product/min/ml. Further, in data set [2] (rat hepatic microsomes, ± S.D.), the “Esterase RHA (relative hydrolytic activity)” value was found to be 100. In data set [3] (10 μg total dose per animal), the “uterotrophic effect” value is “no measurable stimulation”. The “uterotrophic effect” value in data set [3] (30 μg total dose) is recorded as “small increase in uterine weight”. Also, the “uterotrophic effect expressed as equivalent amount of E2” value (“uterotrophic effect expressed” for short) in data set [3] (100 μg total dose) was “about 4 μg”. For the same compound, the “ERα/ERβ (ratio of the RBAs)” value with human ERβ and ERα is given as 1,300. Also, in data set [4], the “ER RBA (relative binding affinity)” value is 40 ± 10 and the RBA came to 40%. In data set [5], the “RSA (estrogenic potency compared to E2)” value is given as 11% and the “Ishikawa Cell AlkP RSA (relative stimulatory activity)” value came to 11 ± 5.

`C[C@]12CC[C@@H]3c4ccc(O)cc4CC[C@H]3[C@@H]1C[C@@H](C(=O)OCCF)[C@@H]2O` [E16-1,2F1, 2′-Fluoroethyl (3,17β-dihydroxyestra-1,3,5(10)-trien-16α-yl) formate]: in data set [1] (10 ng in sesame oil), the “vaginal estrogenic effect” value is recorded as “consistent stimulation at 10 ng of E16-1,2F1, however, it was not statistically significant”. For the same compound, in data set [1] (50 ng in sesame oil (FIG. 3b)), the “vaginal estrogenic effect” value is listed as “produced a significant estrogenic effect” and the “vaginal estrogenic effect expressed as equivalent dose of E2” value is given as roughly 20 pg. Besides, the “dose producing a statistically significant (P<0.001) stimulation of vaginal reductase” value in data set [1] is given as 100 ng. The “rate of cleavage relative to the non-fluorinated ester E16-1,2” value in data set [2] (esterase, rat hepatic microsomes) was “about 4 times”. Moreover, in data set [2] (rat hepatic microsomes, ± S.D.), the “Esterase RHA (relative hydrolytic activity)” value amounted to 420 ± 40. Also, the “uterotrophic effect” value in data set [3] (100 μg total dose) is “did not produce a uterotrophic stimulation”. Moreover, the “uterotrophic effect expressed” value in data set [3] (300 μg total dose) is “less than 5 ng”. Also, the “uterotrophic effect” value in data set [3] (300 μg total dose, other experiments (not shown)) was “small uterotrophic effect”. Also, the “ERα/ERβ (ratio of the RBAs)” value in the data set with human ERβ and ERα is recorded as 2,000. Besides, in data set [4], the “ER RBA (relative binding affinity)” value is given as 35 ± 3 and the RBA stood at 35%. In addition, in data set [5], the “RSA (estrogenic potency compared to E2)” value came out at 13% and the “Ishikawa Cell AlkP RSA (relative stimulatory activity)” value was 13 ± 5.

For the compound `C=COC(=O)[C@@H]1C[C@H]2[C@@H]3CCc4cc(O)ccc4[C@H]3CC[C@]2(C)[C@H]1O` [E16-1,2vin, Vinyl (3,17β-dihydroxyestran-1,3,5(10)-trien-16α-yl) formates], in data set [6], the “stability under the conditions used in the esterase assay” value is on record as “stable”. Besides, the “Esterase RHA (relative hydrolytic activity)” value in data set [2] (rat hepatic microsomes, ± S.D.) was 20,300 ± 5,500. Also, in data set [4], the “ER RBA (relative binding affinity)” value stood at 6 ± 2 and the RBA came to 6%. The “Ishikawa Cell AlkP RSA (relative stimulatory activity)” value in data set [5] is given as 0.4 ± 0.3.

As for `COC(=O)[C@@H]1C[C@H]2[C@@H]3CCc4cc(O)ccc4[C@H]3CC[C@]2(C)[C@H]1O` [E16-1,1, Methyl (3,17β-dihydroxyestra-1,3,5(10)-trien-16α-yl) formate], the “vaginal estrogenic effect” value in data set [1] (50 ng in sesame oil (FIG. 3b)) was “still not stimulatory”. In addition, the “dose producing a statistically significant (P<0.001) stimulation of vaginal reductase” value in data set [1] was determined as 250 ng. In addition, the “Esterase RHA (relative hydrolytic activity)” value in data set [2] (rat hepatic microsomes, ± S.D.) turned out to be 45 ± 10. In addition, the “uterotrophic effect” value in data set [3] (10 μg total dose per animal) is recorded as “small stimulatory action (P<0.05)”. Further, the “uterotrophic stimulation expressed as equivalent amount of E2” value in data set [3] (30 μg total dose) was roughly 3 ng. Further, in data set [3] (100 μg total dose), the “uterotrophic effect expressed” value was “about 4 μg”. In addition, in data set [3] (immature rat, s.c. in sesame oil, 3 days, total dose), the “dose producing a reproducible and statistically significant stimulation (P<0.01)” value fell in the range of 30 to 50 µg. The “ERα/ERβ (ratio of the RBAs)” value with human ERβ and ERα is reported as 750. In data set [4], the “ER RBA (relative binding affinity)” value stood at 35 ± 4 and the RBA is recorded as 35%. Besides, in data set [5], the “RSA (estrogenic potency compared to E2)” value amounted to 10% and the “Ishikawa Cell AlkP RSA (relative stimulatory activity)” value turned out to be 10 ±3.
